Experimental data: US10633350B2, “Diphenyl derivatives and uses thereof” (NOVARTIS AG, priority 2017, dated 2020)

Columns and labels:
[1] = tested on: FoxO3a; experiment: FoxO3a inhibition assay (GFP-FoxO3a nuclear to cytoplasmic translocation) in U2OS GFP-FoxO3a H212R reporter cells; assay type: cell-based; conditions: Homo sapiens, 0.5 h, serum starved overnight, 30 minutes compound treatment, ratio of nuclear to cytosolic GFP intensity, AC50 = concentration that results in 50% activation or inhibition, read-out: FoxO AC50
Summary of the method: (§1)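 Serum-starved (overnight) cells treated with compounds at various doses for 30 min, then fixed in 4% paraformaldehyde and stained overnight at 4 °C for pAkt S473 with Hoechst nuclear counterstain; high-content imaging. FoxO3a readout: nuclear/cytosolic GFP ratio (%); Akt readout: total cellular pAkt intensity (%); DMSO = 0% activity.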

[2] = tested on: Akt; experiment: Akt activation assay (Phospho-AKT (Ser473) antibody staining) in U2OS GFP-FoxO3a H212R reporter cells; assay type: cell-based; conditions: Homo sapiens, 0.5 h, serum starved overnight, 30 minutes compound treatment, total cellular intensity of Phospho-Akt (Ser473) antibody staining, AC50 = concentration that results in 50% activation or inhibition
Summary of the method: as §1

Question: Which AC50 [1] does the source give for Cc1cc(C(N)=O)nn1-c1ccc(Cc2ccc(-c3ccc(C(=O)N4CCN[C@@H](CO)C4)cc3)cc2)cc1 [Example 28, (R)-1-(4-((4′-(3-(hydroxymethyl)piperazine-1-carbonyl)-[1,1′-biphenyl]-4-yl)methyl)phenyl)-5-methyl-1H-pyrazole-3-carboxamide] here?
Answer: 26 nM

Question: What about the AC50 [2] of the same molecule?
Answer: 73 nM

Question: Cc1nc(C(N)=O)nn1-c1ccc(Cc2ccc(-c3ccc(C(=O)N4CCN[C@@H](C)C4)cc3)cc2)cc1 [Example 29, (S)-5-methyl-1-(4-((4′-(3-methylpiperazine-1-carbonyl)-[1,1′-biphenyl]-4-yl)methyl)phenyl)-1H-1,2,4-triazole-3-carboxamide] was tested. Which AC50 [1] did it give?
Answer: 138 nM

Question: And the AC50 [2]?
Answer: 486 nM

Question: Cc1cc(C(N)=O)nn1-c1ccc(Cc2ccc(-c3ccc(C(=O)NC4CNC4)cc3)cc2)cc1 [Example 30, 1-(4-((4′-(azetidin-3-ylcarbamoyl)-[1,1′-biphenyl]-4-yl)methyl)phenyl)-5-methyl-1H-pyrazole-3-carboxamide] was tested. Which AC50 [1] did it give?
Answer: 237 nM

Question: And the AC50 [2]?
Answer: 802 nM

Question: What does the source list for Cc1cc(C(N)=O)nn1-c1ccc(Cc2ccc(-c3ccc(CN4CCNCC4)nc3)cc2)cc1 [Example 31-1, 5-methyl-1-(4-(4-(6-(piperazin-1-ylmethyl)pyridin-3-yl)benzyl)phenyl)-1H-pyrazole-3-carboxamide]?
Answer: AC50 [1]: 77 nM; AC50 [2]: 354 nM

Question: Cc1cc(C(N)=O)nn1-c1ccc(Cc2ccc(-c3ccnc(CN4CCNCC4)c3)cc2)cc1 [Example 31-2] was tested. Which AC50 [1] did it give?
Answer: 373 nM

Question: And the AC50 [2]?
Answer: 1620 nM

Question: With Cc1cc(C(N)=O)nn1-c1ccc(Cc2ccc(-c3ccc(CN4CCNCC4)cn3)cc2)cc1 [Example 31-3, 5-methyl-1-(4-(4-(5-(piperazin-1-ylmethyl)pyridin-2-yl)benzyl)phenyl)-1H-pyrazole-3-carboxamide] as the molecule, how does the AC50 [1] read?
Answer: 158 nM

Question: What about the AC50 [2] of the same molecule?
Answer: 190 nM

Question: For Cc1cc(C(N)=O)nn1-c1ccc(Cc2ccc(-c3ccc(CN4CCN(CCO)CC4)nc3)cc2)cc1 [Example 32, 1-(4-(4-(6-((4-(2-hydroxyethyl)piperazin-1-yl)methyl)pyridin-3-yl)benzyl)phenyl)-5-methyl-1H-pyrazole-3-carboxamide], which AC50 [1] is on record?
Answer: 315 nM

Question: And the AC50 [2]?
Answer: 647 nM

Question: Which AC50 [1] does the source give for Cc1nc(C(N)=O)nn1-c1ccc(Cc2ccc(-c3ccc(CN4CCN(C)CC4)nc3)cc2)cc1 [Example 34, 5-methyl-1-(4-(4-(6-((4-methylpiperazin-1-yl)methyl)pyridin-3-yl)benzyl)phenyl)-1H-1,2,4-triazole-3-carboxamide] here?
Answer: 300 nM

Question: And the AC50 [2]?
Answer: 576 nM

Question: Which AC50 [1] does the source give for Cc1nc(C(N)=O)nn1-c1ccc(Cc2ccc(-c3ccc(CN4CCN(C)[C@@H](C)C4)nc3)cc2)cc1 [Example 37, (S)-1-(4-(4-(6-((3,4-dimethylpiperazin-1-yl)methyl)pyridin-3-yl)benzyl)phenyl)-5-methyl-1H-1,2,4-triazole-3-carboxamide] here?
Answer: 276 nM

Question: What about the AC50 [2] of the same molecule?
Answer: 498 nM

Question: Which results are given for Cc1nc(C(N)=O)nn1-c1ccc(Cc2ccc(-c3ccc(CN4CCC(F)(F)C4)cc3)cc2)cc1 [Example 38-2]?
Answer: AC50 [1]: 48 nM; AC50 [2]: 230 nM

Question: With Cc1nc(C(N)=O)nn1-c1ccc(Cc2ccc(-c3ccc(CN4CC5(COC5)C4)cc3)cc2)cc1 [Example 38-4] as the molecule, how does the AC50 [1] read?
Answer: 62 nM

Question: And the AC50 [2]?
Answer: 207 nM

Question: What does the source list for Cc1nc(C(N)=O)nn1-c1ccc(Cc2ccc(-c3ccc(CN4CCC[C@@H]4CO)cc3)cc2)cc1 [Example 38-5]?
Answer: AC50 [1]: 26 nM; AC50 [2]: 27 nM

Question: Which results are given for Cc1nc(C(N)=O)nn1-c1ccc(Cc2ccc(-c3ccc(CN4CCC(C)(C)C4)cc3)cc2)cc1 [Example 38-7]?
Answer: AC50 [1]: 15 nM; AC50 [2]: 31 nM

Question: How did the AC50 [1] turn out when Cc1nc(C(N)=O)nn1-c1ccc(Cc2ccc(-c3ccc(CN4CCC5(CC4)COC5)cc3)cc2)cc1 [Example 38-8] was run?
Answer: 51 nM

Question: And the AC50 [2]?
Answer: 211 nM

Question: What does the source list for Cc1nc(C(N)=O)nn1-c1ccc(Cc2ccc(-c3ccc(CN4CCCC(F)(F)C4)cc3)cc2)cc1 [Example 38-9]?
Answer: AC50 [1]: 13 nM; AC50 [2]: 11 nM

Question: Which AC50 [1] does the source give for Cc1nc(C(N)=O)nn1-c1ccc(Cc2ccc(-c3ccc(CN4CCC(C)(C)CC4)cc3)cc2)cc1 [Example 38-10] here?
Answer: 175 nM

Question: What about the AC50 [2] of the same molecule?
Answer: 397 nM

Question: Which results are given for Cc1nc(C(N)=O)nn1-c1ccc(Cc2ccc(-c3ccc(CN4CCC(CN(C)C)CC4)cc3)cc2)cc1 [Example 39-1, 1-(4-((4′-((4-((dimethylamino)methyl)piperidin-1-yl)methyl)-[1,1′-biphenyl]-4-yl)methyl)phenyl)-5-methyl-1H-1,2,4-triazole-3-carboxamide]?
Answer: AC50 [1]: 195 nM; AC50 [2]: 615 nM

Question: Which AC50 [1] does the source give for Cc1nc(C(N)=O)nn1-c1ccc(Cc2ccc(-c3ccc(CN4CCC(C(C)(C)O)CC4)cc3)cc2)cc1 [Example 39-3] here?
Answer: 37 nM

Question: And the AC50 [2]?
Answer: 120 nM
